Assays:
Assay type in all cases: in vivo
Lolium perenne (LOLPE) = assay: Glasshouse herbicide test, pre- and post-emergence, Lolium perenne; details: 250 g/h, evaluated after 13 days; for LOLPE POST, percentage damage caused to the plant (five point scale): post-emergence; for LOLPE PRE, percentage damage caused to the plant (five point scale): pre-emergence
Description: (§1) Seeds of a variety of test species are sown in standard soil in pots (Lolium perenne (LOLPE), Setaria faberi (SETFA), Alopecurus myosuroides (ALOMY), Echinochloa crus-galli (ECHCG), Avena fatua (AVEFA)). After cultivation for one day (pre-emergence) or after 8 days cultivation (post-emergence) under controlled conditions in a glasshouse (at 24/16° C., day/night; 14 hours light; 65% humidity), the plants are sprayed with an aqueous spray solution derived from the formulation of the technical active ingredient in acetone/water (50:50) solution containing 0.5% Tween 20 (polyoxyethelyene sorbitan monolaurate, CAS RN 9005-64-5). Compounds are applied at […]. The test plants are then grown in a glasshouse under controlled conditions in a glasshouse (at 24/16° C., day/night; 14 hours light; 65% humidity) and watered twice daily. After 13 days for pre and post-emergence, the test is evaluated for the percentage damage caused to the plant. The biological activities are shown in the following table on a five point scale (5=80-100%; 4=60-79%; 3=40-59%; 2=20-39%; 1=0-19%).

Setaria faberi (SETFA) = assay: Glasshouse herbicide test, pre- and post-emergence, Setaria faberi; details: 250 g/h, evaluated after 13 days; for SETFA POST, percentage damage caused to the plant (five point scale): post-emergence; for SETFA PRE, percentage damage caused to the plant (five point scale): pre-emergence
Description: as §1

[1] = tested on: Alopecurus myosuroides (ALOMY); assay: Glasshouse herbicide test, pre- and post-emergence, Alopecurus myosuroides; details: 250 g/h, evaluated after 13 days; for ALOMY POST, percentage damage caused to the plant (five point scale): post-emergence; for ALOMY PRE, percentage damage caused to the plant (five point scale): pre-emergence
Description: as §1

[2] = tested on: Echinochloa crus-galli (ECHCG); assay: Glasshouse herbicide test, pre- and post-emergence, Echinochloa crus-galli; details: 250 g/h, evaluated after 13 days; for ECHCG POST, percentage damage caused to the plant (five point scale): post-emergence; for ECHCG PRE, percentage damage caused to the plant (five point scale): pre-emergence
Description: as §1

Avena fatua (AVEFA) = assay: Glasshouse herbicide test, pre- and post-emergence, Avena fatua; details: 250 g/h, evaluated after 13 days; for AVEFA POST, percentage damage caused to the plant (five point scale): post-emergence; for AVEFA PRE, percentage damage caused to the plant (five point scale): pre-emergence
Description: as §1

CC#Cc1ccc(C2C(=O)[C@H]3[C@@H]4CC[C@@](C)(O4)[C@H]3C2=O)c(OC)c1 (mixture of isomers) [Compound 1.5]
5 (5=80-100%): LOLPE POST, percentage damage caused to the plant (five point scale) (Lolium perenne (LOLPE)) | LOLPE PRE, percentage damage caused to the plant (five point scale) (Lolium perenne (LOLPE)) | SETFA POST, percentage damage caused to the plant (five point scale) (Setaria faberi (SETFA)) | SETFA PRE, percentage damage caused to the plant (five point scale) (Setaria faberi (SETFA)) | ALOMY POST, percentage damage caused to the plant (five point scale) [1] | ALOMY PRE, percentage damage caused to the plant (five point scale) [1] | ECHCG POST, percentage damage caused to the plant (five point scale) [2] | ECHCG PRE, percentage damage caused to the plant (five point scale) [2] | AVEFA POST, percentage damage caused to the plant (five point scale) (Avena fatua (AVEFA)) | AVEFA PRE, percentage damage caused to the plant (five point scale) (Avena fatua (AVEFA))

CC#Cc1ccc(C2C(=O)[C@@H]3[C@@H]4O[C@@H](C[C@@H]4COC)[C@@H]3C2=O)c(OC)c1 (mixture of isomers) [Compound 1.9, 8-methoxymethyl-4-[2-methoxy-4-(prop-1-yn-1-yl)phenyl]-10-oxatricyclo[5.2.1.0^2,6]decane-3,5-dione]
5 (5=80-100%): LOLPE POST, percentage damage caused to the plant (five point scale) (Lolium perenne (LOLPE)) | LOLPE PRE, percentage damage caused to the plant (five point scale) (Lolium perenne (LOLPE)) | SETFA POST, percentage damage caused to the plant (five point scale) (Setaria faberi (SETFA)) | SETFA PRE, percentage damage caused to the plant (five point scale) (Setaria faberi (SETFA)) | ALOMY POST, percentage damage caused to the plant (five point scale) [1] | ALOMY PRE, percentage damage caused to the plant (five point scale) [1] | ECHCG POST, percentage damage caused to the plant (five point scale) [2] | ECHCG PRE, percentage damage caused to the plant (five point scale) [2] | AVEFA POST, percentage damage caused to the plant (five point scale) (Avena fatua (AVEFA)) | AVEFA PRE, percentage damage caused to the plant (five point scale) (Avena fatua (AVEFA))

CC#Cc1ccc(C2C(=O)[C@@H]3[C@H](C2=O)[C@@H]2O[C@H]3C[C@]2(C)OC)c(OC)c1 (mixture of isomers) [Compound 1.33]
5 (5=80-100%): LOLPE POST, percentage damage caused to the plant (five point scale) (Lolium perenne (LOLPE)) | LOLPE PRE, percentage damage caused to the plant (five point scale) (Lolium perenne (LOLPE)) | SETFA POST, percentage damage caused to the plant (five point scale) (Setaria faberi (SETFA)) | SETFA PRE, percentage damage caused to the plant (five point scale) (Setaria faberi (SETFA)) | ALOMY POST, percentage damage caused to the plant (five point scale) [1] | ALOMY PRE, percentage damage caused to the plant (five point scale) [1] | ECHCG POST, percentage damage caused to the plant (five point scale) [2] | ECHCG PRE, percentage damage caused to the plant (five point scale) [2] | AVEFA POST, percentage damage caused to the plant (five point scale) (Avena fatua (AVEFA)) | AVEFA PRE, percentage damage caused to the plant (five point scale) (Avena fatua (AVEFA))

CC#Cc1ccc(C2=C(OC(=O)C(C)C)[C@@H]3[C@H](C2=O)[C@H]2CC[C@@H]3O2)c(OC)c1 (racemic) [Compound 1.1, isobutyric acid 4-(2-methoxy-4-prop-1-ynyl-phenyl)-5-oxo-10-oxa-tricyclo[5.2.1.0^2,6]dec-3-en-3-yl ester]
5 (5=80-100%): LOLPE POST, percentage damage caused to the plant (five point scale) (Lolium perenne (LOLPE)) | LOLPE PRE, percentage damage caused to the plant (five point scale) (Lolium perenne (LOLPE)) | SETFA POST, percentage damage caused to the plant (five point scale) (Setaria faberi (SETFA)) | SETFA PRE, percentage damage caused to the plant (five point scale) (Setaria faberi (SETFA)) | ECHCG POST, percentage damage caused to the plant (five point scale) [2] | ECHCG PRE, percentage damage caused to the plant (five point scale) [2] | AVEFA POST, percentage damage caused to the plant (five point scale) (Avena fatua (AVEFA)) | AVEFA PRE, percentage damage caused to the plant (five point scale) (Avena fatua (AVEFA))

From patent US20200113181A1, “HERBICIDAL COMPOUNDS” (SYNGENTA PARTICIPATIONS AG, priority 2016, published 2020)
